Values of other authors, collected in patent US20260102363A1, “TREATMENT METHOD AND ANTIFUNGAL COMPOSITION” (MOBERG PHARMA AB, priority 2020, published 2026).
Where a name gives a salt, the structure may show the parent alone. Read-outs that look alike come from different tables or passages of the source.

Legend:
[1] = test system: DSO
[2] = test system: onychomycosis
[3] = Study 1 of the prescribing information
[4] = Study 2 of the prescribing information
[5] = single reported study, hydrochloride

Structure (SMILES)	Complete Cure (%) [1, 3]	Mycological Cure (%) [1, 3]	Complete Cure (%) [1, 4]	Mycological Cure (%) [1, 4]	Complete Cure (%) ([1]; single reported study)	Mycological Cure (%) ([1]; single reported study)	other results
Cc1cc(C2CCCCC2)n(O)c(=O)c1 [Ciclopirox (Penlac ®), ciclopirox]	5.5%	29%	8.5%	36%			
C=C1CCN([C@H](C)[C@](O)(Cn2cncn2)c2ccc(F)cc2F)CC1 [Efinaconazole (JUBLIA ®), efinaconazole]	15.2%	53.4%	17.8%	55.2%			
N#C/C(=C1/SC[C@@H](c2ccc(Cl)cc2Cl)S1)n1ccnc1 [Luliconazole]					14.9%	45.4%	
OB1OCc2cc(F)ccc21 [Tavaborole (KERYDIN ®), tavaborole]	6.5%	31%	9.1%	35.9%			
CN(C/C=C/C#CC(C)(C)C)Cc1cccc2ccccc12 [Terbinafine (P3058), Terbinafine]					5.7%	20.4%	
CN(C/C=C/C#CC(C)(C)C)Cc1cccc2ccccc12 [Terbinafine (oral) (LAMISIL ®), terbinafine hydrochloride]							Complete Cure (%) [1, 5]: 38%; Mycological Cure (%) [1, 5]: 70%; mycological cure rate ([2]; after 12 weeks): ~15%; mycological cure rate ([2]; at 24 weeks): ~40%; mycological cure rate ([2]; at week 48/52): ~70%
